Where “and” joins values, the source holds several entries; their conditions need not be identical. Identical values can stand only once. Inconclusive results and toxic doses are left out. Rule as the data show it: active = T/C of 150% or more; inactive = T/C below 125%. Square brackets hold non-standard residues; d marks the D form. Peptide text beside a SMILES is read from it. ξ: configuration not given here. ξN = NC(=O)CC(N)C(=O)O
Test system: L1210 leukemia ip in BDF1 mice, survival T/C
Experiment: NCI In Vivo Anticancer Drug Screen. Data for tumor model L1210 Leukemia (intraperitoneal) in B6D2F1 (BDF1) mice
Conditions: endpoint: mean survival time, higher = longer survival
How it was run: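 Transplantable tumor model; survival measured in treated vs vehicle control mice. Value = treated/control.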

[1] = dose: 100.0 mg/kg/injection, schedule: Q01DX009 (ip), vehicle: Klucel (hydroxypropylcellulose) (HPC)
[2] = dose: 200.0 mg/kg/injection, schedule: Q01DX009 (ip), vehicle: Klucel (hydroxypropylcellulose) (HPC)
[3] = dose: 400.0 mg/kg/injection, schedule: Q01DX009 (ip), vehicle: Klucel (hydroxypropylcellulose) (HPC)
[4] = dose: 100.0 mg/kg/injection, schedule: Q04DX003 (ip), vehicle: saline with Tween-80
[5] = dose: 200.0 mg/kg/injection, schedule: Q04DX003 (ip), vehicle: saline with Tween-80
[6] = dose: 400.0 mg/kg/injection, schedule: Q04DX003 (ip), vehicle: saline with Tween-80
[7] = dose: 100.0 mg/kg/injection, schedule: Q04DX002 (ip), vehicle: Klucel (hydroxypropylcellulose) (HPC)
[8] = dose: 200.0 mg/kg/injection, schedule: Q04DX002 (ip), vehicle: Klucel (hydroxypropylcellulose) (HPC)
[9] = dose: 400.0 mg/kg/injection, schedule: Q04DX002 (ip), vehicle: Klucel (hydroxypropylcellulose) (HPC)
[10] = dose: 100.0 mg/kg/injection, schedule: Q01DX009 (ip), vehicle: saline with Tween-80
[11] = dose: 200.0 mg/kg/injection, schedule: Q01DX009 (ip), vehicle: saline with Tween-80

Measured: T/C

Cc1ccc(CNc2ccc(C)cc2)cc1
inactive: [1] 100 % of control | dose: 100.0 mg/kg/injection, schedule: Q04DX003 (ip), vehicle: Klucel (hydroxypropylcellulose) (HPC) 98 % of control | [2] 106 % of control | dose: 200.0 mg/kg/injection, schedule: Q04DX003 (ip), vehicle: Klucel (hydroxypropylcellulose) (HPC) 100 % of control | [3] 99 % of control | dose: 400.0 mg/kg/injection, schedule: Q04DX003 (ip), vehicle: Klucel (hydroxypropylcellulose) (HPC) 95 % of control

CP1(=S)CCC(O)(c2ccccc2)CC1 (stereo not given)
inactive: dose: 400.0 mg/kg/injection, schedule: Q04DX002 (ip), vehicle: saline with Tween-80 88 % of control

N#C[CH2][Sn]([I])([c]1ccccc1)[c]1ccccc1
inactive: dose: 12.5 mg/kg/injection, schedule: Q04DX002 (ip), vehicle: saline with Tween-80 100 % of control | dose: 25.0 mg/kg/injection, schedule: Q04DX002 (ip), vehicle: saline with Tween-80 107 % of control | dose: 50.0 mg/kg/injection, schedule: Q04DX002 (ip), vehicle: saline with Tween-80 91 % of control

CC(=O)c1c(C)[nH]c(C(=O)O)c1C
inactive: dose: 100.0 mg/kg/injection, schedule: Q01DX001 (ip), vehicle: saline with Tween-80 103 % of control | dose: 200.0 mg/kg/injection, schedule: Q01DX001 (ip), vehicle: saline with Tween-80 100 % of control | dose: 400.0 mg/kg/injection, schedule: Q01DX001 (ip), vehicle: saline with Tween-80 90 % of control

Cc1cc(OC(=O)Nc2ccc(F)c([N+](=O)[O-])c2)cc(C)c1Cl
inactive: [1] 101 % of control | [2] 93 % of control | [3] 95 % of control

CC(=O)/C=C/C1C(C)=CCCC1(C)C (stereo not given)
inactive: [4] 97 % of control | [5] 92 % of control | [6] 100 % of control

CCOC(=O)C(C)N1C(=O)c2ccccc2C1=O (stereo not given)
inactive: [7] 100 % of control | [8] 104 % of control | [9] 100 % of control

CCCCCCCC[n+]1cccc(C(N)=O)c1
inactive: [4] 98 % of control | [5] 89 % of control

O=C(O)CC(NC(=O)OCc1ccccc1)C(=O)OCc1ccccc1 (stereo not given)
inactive: [10] 107 % of control | [4] 104 % of control | [11] 93 % of control | [5] 107 % of control | dose: 400.0 mg/kg/injection, schedule: Q01DX009 (ip), vehicle: saline with Tween-80 91 % of control | [6] 96 % of control

CC(c1ccccc1)[P+](c1ccccc1)(c1ccccc1)c1ccccc1 (stereo not given)
inactive: dose: 12.5 mg/kg/injection, schedule: Q04DX002 (ip), vehicle: saline 106 % of control | dose: 25.0 mg/kg/injection, schedule: Q04DX002 (ip), vehicle: saline 111 % of control | dose: 50.0 mg/kg/injection, schedule: Q04DX002 (ip), vehicle: saline 97 % of control

NCC(=O)NC(CC(N)=O)C(=O)O (stereo not given) (H-Gly-[ξN]-OH)
inactive: dose: 100.0 mg/kg/injection, schedule: Q01DX009 (ip), vehicle: saline 97 % of control | dose: 200.0 mg/kg/injection, schedule: Q01DX009 (ip), vehicle: saline 102 % of control | dose: 400.0 mg/kg/injection, schedule: Q01DX009 (ip), vehicle: saline 97 % of control

COc1ccc(CN(C)CCN(C)CCN(C)Cc2ccc(OC)cc2)cc1
inactive: dose: 25.0 mg/kg/injection, schedule: Q01DX009 (ip), vehicle: water 105 % of control | dose: 50.0 mg/kg/injection, schedule: Q01DX009 (ip), vehicle: water 99 % of control | dose: 100.0 mg/kg/injection, schedule: Q01DX009 (ip), vehicle: water 101 % of control

CSc1nc(SC)c2[nH]cnc2n1
inactive: [1] 100 % of control | [2] 105 % of control | [3] 98 % of control

CC(C)C(COC(=O)c1ccc(N)cc1)NC1CCCCC1C (stereo not given)
inactive: dose: 75.0 mg/kg/injection, schedule: Q01DX001 (ip), vehicle: carboxymethylcellulose (CMC) 97 % of control | dose: 150.0 mg/kg/injection, schedule: Q01DX001 (ip), vehicle: carboxymethylcellulose (CMC) 95 % of control | dose: 300.0 mg/kg/injection, schedule: Q01DX001 (ip), vehicle: carboxymethylcellulose (CMC) 89 % of control

C[C@]12CC[C@@H]3c4ccc(Oc5nc(N6CC6)nc(N6CC6)n5)cc4CC[C@H]3[C@@H]1CCC2=O
inactive: dose: 25.0 mg/kg/injection, schedule: Q01DX009 (ip), vehicle: steriod suspending solution 101 % of control | dose: 25.0 mg/kg/injection, schedule: Q01DX009 (oral), vehicle: carboxymethylcellulose (CMC) 106 % of control | dose: 25.0 mg/kg/injection, schedule: Q04DX003 (sc), vehicle: steriod suspending solution 106 % of control | dose: 50.0 mg/kg/injection, schedule: Q01DX009 (oral), vehicle: carboxymethylcellulose (CMC) 101 % of control | dose: 50.0 mg/kg/injection, schedule: Q04DX003 (sc), vehicle: steriod suspending solution 98 % of control | dose: 100.0 mg/kg/injection, schedule: Q01DX001 (sc), vehicle: steriod suspending solution 105 % of control | dose: 100.0 mg/kg/injection, schedule: Q01DX009 (oral), vehicle: carboxymethylcellulose (CMC) 104 % of control | dose: 100.0 mg/kg/injection, schedule: Q04DX003 (sc), vehicle: steriod suspending solution 101 % of control | dose: 200.0 mg/kg/injection, schedule: Q01DX001 (sc), vehicle: steriod suspending solution 118 % of control | dose: 400.0 mg/kg/injection, schedule: Q01DX001 (sc), vehicle: steriod suspending solution 107 % of control

N#CC1(C(=O)c2ccccc2)C=Cc2ccccc2N1C(=O)c1ccccc1 (stereo not given)
inactive: dose: 100.0 mg/kg/injection, schedule: Q01DX001 (ip), vehicle: steriod suspending solution 87 % of control | dose: 200.0 mg/kg/injection, schedule: Q01DX001 (ip), vehicle: steriod suspending solution 90 % of control | dose: 400.0 mg/kg/injection, schedule: Q01DX001 (ip), vehicle: steriod suspending solution 92 % of control

Cc1ccc(C(=O)OCC2OC3OC(C)(C)OC3C2OC(=O)c2ccc(C)cc2)cc1 (stereo not given)
inactive: dose: 100.0 mg/kg/injection, schedule: Q01DX001 (ip), vehicle: carboxymethylcellulose (CMC) 90 % of control | dose: 200.0 mg/kg/injection, schedule: Q01DX001 (ip), vehicle: carboxymethylcellulose (CMC) 104 % of control | dose: 400.0 mg/kg/injection, schedule: Q01DX001 (ip), vehicle: carboxymethylcellulose (CMC) 101 % of control

CNc1cccc2c1C(=O)c1ccccc1C2=O
inactive: [7] 96 % of control | [8] 92 % of control | [9] 96 % of control

Cc1cccc(S(=O)(=O)F)c1
inactive: dose: 50.0 mg/kg/injection, schedule: Q01DX009 (ip), vehicle: saline with Tween-80 91 % of control | [10] 100 % of control | dose: 100.0 mg/kg/injection, schedule: Q04DX003 (ip), vehicle: acetone 101 % of control | [11] 88 % of control | dose: 200.0 mg/kg/injection, schedule: Q04DX003 (ip), vehicle: acetone 97 % of control

CC(=O)OC1CC2(O)C(CCC3(C)C(c4ccc(=O)oc4)CCC32O)C2(C)C1=CC(O)C1OC12 (stereo not given)
inactive: dose: 0.06 mg/kg/injection, schedule: Q01DX001 (sc), vehicle: steriod suspending solution 105 % of control | dose: 0.13 mg/kg/injection, schedule: Q01DX001 (sc), vehicle: steriod suspending solution 103 % of control | dose: 0.25 mg/kg/injection, schedule: Q01DX001 (sc), vehicle: steriod suspending solution 105 % of control | dose: 0.5 mg/kg/injection, schedule: Q01DX001 (sc), vehicle: steriod suspending solution 100 % of control and 102 % of control | dose: 1.0 mg/kg/injection, schedule: Q01DX001 (sc), vehicle: steriod suspending solution 96 % of control | dose: 2.0 mg/kg/injection, schedule: Q01DX001 (sc), vehicle: steriod suspending solution 104 % of control

Reference: PubChem BioAssay AID248 (DTP/NCI, 2004)
